The results in this text go back to PMC6273687, “Design, Synthesis and Biological Evaluation of Novel Primaquine-Cinnamic Acid Conjugates of the Amide and Acylsemicarbazide Type” (Molecules, 2016).

Assay [1] can be described thus: Interaction with the stable radical DPPH (reducing ability). The procedure: To a solution of DPPH in absolute ethanol the appropriate volume of the compounds (50 or 100 µM final concentrations) dissolved in DMSO was added. The absorbance was recorded at 517 nm after 20 and 60 min at room temperature. The experiments were repeated at least in triplicate and the standard deviation of absorbance was less than 10% of the mean. NDGA was used under the same experimental conditions as a reference compound.
(In general: Loss of DPPH colour is used to gauge radical scavenging.)

The test system of assay [2] is L1210 murine lymphocytic leukemia cell line. The experiment in a line: Growth inhibition of tumor cell lines in vitro (MTT / cell counting). It is filed as cell-based. Conditions: Mus musculus, 96 h; L1210, 4 days. How it is done:
(§1) The experiments were carried out on a murine lymphocytic leukemia cell line (L1210) and five human tumor cell lines: CEM, HeLa, NCI-H460, SW 620 and MCF-7. The cells were cultured as monolayers and maintained in Dulbecco′s modified Eagle medium (DMEM) supplemented with 10% fetal bovine serum (FBS), 2 mM L-glutamine, 100 U/mL penicillin and 100 μg/mL streptomycin in a humidified atmosphere with 5% CO2 at 37 °C.
(§2) The growth inhibition activity of the compounds was assessed as described previously. The cell lines were inoculated onto a series of standard 96-well microtiter plates on day 0, at 1.5 × 10^4 cells/mL (SW 620, H460) to 2.5 × 10^4 cells/mL (MCF-7, CEM and L1210), depending on the growth of the tumor cell line. Test agents were then added in ten-fold dilutions (10^−8 to 10^−4 M) and the cell cultures were then incubated for 3–4 days with 5% CO2 at 37 °C. Working dilutions of the compounds were freshly prepared on the day of testing.
(§3) After 3 (MCF-7, SW 620, NCI-H460) or 4 days (CEM, L1210), the cell growth rate was evaluated first light microscopically, then by viable cell counting and/or by performing the MTT assay, which detects dehydrogenase activity in live, not dead, cells. The absorbance (A) was measured on a microplate reader at 570 nm. The absorbance is directly proportional to the number of living, metabolically active cells. […] If however, all of the tested concentrations produce PGs exceeding the respective reference level of effect (e.g., PG value of 50), then the highest tested concentration is assigned as the default value, which is preceded by a “>” sign. Minimum two individual experiments were carried out and each test point was performed in quadruplicate.

Assay [3] has as its system CEM acute lymphoblastic leukemia cell line. The description is as above. In kind it is cell-based. Conditions: Homo sapiens, 96 h, 4 days. How it is done: as §1, §2, §3
Assay [4] relates to HeLa cervical carcinoma cell line. The description is as above. The conditions noted are these: Homo sapiens. In kind it is cell-based. The procedure: as §1, §2, §3
The subject of assay [5] is SW 620 colon carcinoma cell line. The assay is described as above. The conditions noted are these: Homo sapiens, 72 h; SW 620, 3 days. In kind it is cell-based. The procedure:
as §1, §2, §3

Assay [6] in a line: Inhibition of linoleic acid peroxidation (AAPH-induced). Conditions: 5 × 10^−5 M. The procedure:
For initiating the lipid peroxidation free radical AAPH was used. Final solution in the UV cuvette consisted of 10 μL linoleate sodium solution (c = 16 mM), 0.93 mL phosphate buffer (c = 0.05 M), pH 7.4, thermostated at 37 °C. 50 μL AAPH solution (c = 40 mM) and 10 μL of the tested compounds were added. The experiment was performed at 37 °C under air. The oxidation of linoleic acid sodium salt was monitored at 234 nm. The assays were repeated at least in triplicate and the standard deviation of absorbance was less than 10% of the mean. Trolox was used under the same experimental conditions as a reference compound.

In assay [7] the target is T1, soybean lipoxygenase (LOX) (Glycine max, UniProt P08170).
T1 construct: purchased Sigma-Aldrich
T1 sequence (P08170 1-839): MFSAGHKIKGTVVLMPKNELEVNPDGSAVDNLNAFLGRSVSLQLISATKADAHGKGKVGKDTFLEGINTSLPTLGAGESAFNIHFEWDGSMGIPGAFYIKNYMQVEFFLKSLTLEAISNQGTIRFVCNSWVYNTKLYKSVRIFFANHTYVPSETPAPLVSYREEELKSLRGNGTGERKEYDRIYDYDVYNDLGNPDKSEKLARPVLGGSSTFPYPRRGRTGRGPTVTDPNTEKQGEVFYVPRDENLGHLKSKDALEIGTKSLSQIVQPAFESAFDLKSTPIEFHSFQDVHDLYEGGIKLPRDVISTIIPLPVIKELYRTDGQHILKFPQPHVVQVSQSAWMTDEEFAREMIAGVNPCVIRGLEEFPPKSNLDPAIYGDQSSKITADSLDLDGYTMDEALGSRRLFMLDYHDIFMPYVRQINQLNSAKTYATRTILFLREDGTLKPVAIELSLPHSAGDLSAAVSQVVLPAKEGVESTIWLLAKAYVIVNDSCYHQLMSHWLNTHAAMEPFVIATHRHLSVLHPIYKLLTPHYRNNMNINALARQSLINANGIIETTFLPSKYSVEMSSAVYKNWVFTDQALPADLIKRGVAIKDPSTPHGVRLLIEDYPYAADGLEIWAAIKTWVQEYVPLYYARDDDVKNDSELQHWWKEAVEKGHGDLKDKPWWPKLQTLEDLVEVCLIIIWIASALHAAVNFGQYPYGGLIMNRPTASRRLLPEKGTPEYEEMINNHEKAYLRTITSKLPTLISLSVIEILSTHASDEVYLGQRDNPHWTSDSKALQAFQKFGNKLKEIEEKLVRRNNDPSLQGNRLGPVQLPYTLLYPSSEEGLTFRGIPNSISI
The experiment in a line: LOX inhibition study in vitro. In kind it is biochemical. Conditions: for inhibition at 100 µM: 1 × 10^−4 M. How it is done: LOX inhibitory assay in vitro was accomplished as described previously. The test compounds (stock solutions 10 mM in DMSO) were incubated at room temperature with sodium linoleate (c = 0.1 mM) and 0.2 mL of LOX enzyme solution (1/9 × 10^−4 m/V in saline). The conversion of sodium linoleate to 13-hydroperoxylinoleic acid was measured at 234 nm and compared with the reference inhibitor. Several concentrations were used for the IC50 determination.

Assay [8] concerns NCI-H460 lung carcinoma cell line. The experiment in a line: Growth inhibition of tumor cell lines in vitro (MTT / cell counting). Conditions: Homo sapiens, 72 h; NCI-H460, 3 days. It is filed as cell-based, human. The procedure:
as §1, §2, §3

In assay [9] the test system is MCF-7 breast carcinoma cell line. The assay is described as above. It is filed as cell-based, human. The conditions noted are these: Homo sapiens, MCF7, 72 h; MCF-7, 3 days. How it is done:
as §1, §2, §3

Usually IC50 stands for the midpoint of a concentration-inhibition curve. As for `COc1cc(NC(C)CCCNC(=O)NNC(=O)/C=C/c2cc(OC)c(OC)c(OC)c2)c2ncccc2c1` (stereo not drawn) [7e, (E)-4-(4-(6-Methoxyquinolin-8-ylamino)pentyl)-1-(3-(3,4,5-trimethoxyphenyl)acryloyl)semicarbazide], the “DPPH-reducing ability RA (%)” value is recorded as 46% in [1] (1 × 10^−4 M, 20 min); 100% in [1] (1 × 10^−4 M, 60 min); 60% in assay [1] (5 × 10^−5 M, 20 min); 100% in [1] (5 × 10^−5 M, 60 min). For the same molecule, the IC50 in assay [2] amounted to 57 ± 5 µM; in assay [3] it was 54 ± 12 µM; in assay [4] it was 70 ± 2 µM; in [5], 48 ± 17 µM; in assay [7] (values in parentheses in Table 3), 43 µM; in assay [8] it was 63 ± 2 µM. Besides, in assay [9], the IC50 amounted to 1.4 ± 0.1 µM. Also, the “LP Inhibition (%)” value in assay [6] was determined as 86%.

In general, inhibition refers to the percentage by which the read-out fell short of the control. Read a low inhibition as a weak effect. With `COc1cc(NC(C)CCCNC(=O)/C=C/c2ccc(OC)c(OC)c2)c2ncccc2c1` (stereo not drawn) [3d, (E)-3-(3,4-Dimethoxyphenyl)-N-(4-(6-methoxyquinolin-8-ylamino)pentyl)acrylamide], the “DPPH-reducing ability RA (%)” value is reported as 34% in assay [1] (1 × 10^−4 M, 20 min) and 31% in [1] (1 × 10^−4 M, 60 min). The half-inhibitory concentration (IC50) in assay [2] was 100 ± 34 µM; in [3] it was 90 ± 45 µM; in assay [4] it was above 125 µM; in assay [5], above 100 µM; in assay [8], above 100 µM; in assay [9], 16 ± 0.6 µM. In [6], the “LP Inhibition (%)” value came out at 73%. This molecule also came in with an inhibition at 100 µM in assay [7] of 43%.

As for `COc1cc(NC(C)CCCNC(=O)/C(C)=C/c2ccccc2)c2ncccc2c1` (stereo not drawn) [3b, (E)-N-(4-(6-Methoxyquinolin-8-ylamino)pentyl)-2-methyl-3-phenylacrylamide], the “DPPH-reducing ability RA (%)” value in assay [1] (1 × 10^−4 M, 20 min) amounted to 5%; in assay [1] (1 × 10^−4 M, 60 min), 37%; in assay [1] (5 × 10^−5 M, 20 min), 2%; in [1] (5 × 10^−5 M, 60 min) it was 2%. Further, the IC50 in assay [2] was 51 µM; in [3] it was 55 ± 6 µM; in assay [4], 106 ± 26 µM; in assay [5] it was above 100 µM; in assay [8], above 100 µM; in [9], 9.4 ± 0.2 µM. In addition, in assay [6], the “LP Inhibition (%)” value came to 79%. In assay [7], at 100 µM the inhibition was 14%.

On to `COc1cc(NC(C)CCCNC(=O)NNC(=O)/C=C/c2ccccc2)c2ncccc2c1` (stereo not drawn) [7a, (E)-1-Cinnamoyl-4-(4-(6-methoxyquinolin-8-ylamino)pentyl)semicarbazide], for which the “DPPH-reducing ability RA (%)” value in assay [1] (1 × 10^−4 M, 20 min) worked out at 39%; in assay [1] (1 × 10^−4 M, 60 min), 100%; in assay [1] (5 × 10^−5 M, 20 min), 49%; in assay [1] (5 × 10^−5 M, 60 min) it was 100%. Besides, the IC50 was 7 ± 3.1 µM in assay [2]; 3 ± 0.5 µM in [3]; 12 ± 2 µM in assay [4]; above 100 µM in [5]; above 100 µM in [8]; 2.5 ± 1.9 µM in [9]. Moreover, the “LP Inhibition (%)” value in assay [6] is given as 83%. For the same molecule, the inhibition at 100 µM in assay [7] stood at 36%.

In the case of `COc1ccc(/C=C/C(=O)NCCCC(C)Nc2cc(OC)cc3cccnc23)cc1` (stereo not drawn) [3c, (E)-3-(4-Methoxyphenyl)-N-(4-(6-methoxyquinolin-8-ylamino)pentyl)acrylamide], the “DPPH-reducing ability RA (%)” value came to 40% in assay [1] (1 × 10^−4 M, 20 min); 43% in assay [1] (1 × 10^−4 M, 60 min); 22% in assay [1] (5 × 10^−5 M, 20 min); 27% in [1] (5 × 10^−5 M, 60 min). For the same molecule, the IC50 in assay [2] was 106 ± 6 µM; in assay [3], 61 ± 30 µM; in assay [4], above 125 µM; in assay [5], above 100 µM; in assay [8], above 100 µM; in [9], 20 ± 3 µM. Also, the “LP Inhibition (%)” value in [6] is reported as 70%. This molecule returned an inhibition at 100 µM in [7] of 45%.

Regarding `COc1cc(NC(C)CCCNC(=O)/C=C/c2cc(C(F)(F)F)cc(C(F)(F)F)c2)c2ncccc2c1` (stereo not drawn) [3k, (E)-3-(3,5-Bis(trifluoromethyl)phenyl)-N-[4-(6-methoxyquinolin-8-ylamino)pentyl]acrylamide], the “DPPH-reducing ability RA (%)” value in assay [1] (1 × 10^−4 M, 60 min) is listed as 50%. The 50% inhibitory concentration (IC50) was 92 ± 24 µM in [2]; 68 ± 29 µM in assay [3]; 18 ± 1 µM in assay [4]; above 100 µM in assay [5]; above 100 µM in assay [8]; 2.6 ± 0.5 µM in [9]. Besides, the “LP Inhibition (%)” value in assay [6] is given as 65%. 100 µM produced 43% inhibition in [7].

Turning to `COc1cc(NC(C)CCCNC(=O)/C=C/c2ccc3c(c2)OCO3)c2ncccc2c1` (stereo not drawn) [3f, (E)-3-(Benzo[d][1,3]dioxo-5-yl)-N-(4-(6-methoxyquinolin-8-ylamino)pentyl)acrylamide], the “DPPH-reducing ability RA (%)” value in assay [1] (1 × 10^−4 M, 20 min) came out at 11%; in [1] (1 × 10^−4 M, 60 min), 33%. Besides, the IC50 is 59 ± 2 µM in assay [2]; 37 ± 27 µM in assay [3]; 72 ± 57 µM in [4]; above 100 µM in [5]; above 100 µM in assay [8]; 6.9 ± 1.3 µM in [9]. Moreover, in assay [6], the “LP Inhibition (%)” value is given as 87%. In [7], this molecule had an inhibition at 100 µM of 34%.

As for `CC(Cc1ccc(O)c(O)c1)C(C)Cc1ccc(O)c(O)c1` (stereo not drawn) [NDGA, nordihydroguaiaretic acid, reference compound], the “DPPH-reducing ability RA (%)” value in [1] (1 × 10^−4 M, 20 min) is reported as 89%; in assay [1] (1 × 10^−4 M, 60 min), 94%; in assay [1] (5 × 10^−5 M, 20 min) it was 83%; in assay [1] (5 × 10^−5 M, 60 min), 87%.

Consider `COc1cc(NC(C)CCCNC(=O)/C=C/c2ccccc2F)c2ncccc2c1` (stereo not drawn) [3h, (E)-3-(2-Fluorophenyl)-N-(4-(6-methoxyquinolin-8-ylamino)pentyl)acrylamide], for which the concentration for half-maximal inhibition (IC50) in assay [2] was 66 ± 5 µM; in assay [3] it was 18 ± 15 µM; in [4] it was 2.1 ± 2.1 µM; in [5] it was 0.3 ± 0.1 µM; in assay [8] it was above 100 µM; in [9], 1.1 ± 0.6 µM. For the same molecule, in assay [6], the “LP Inhibition (%)” value was 66%. The same molecule displayed an inhibition at 100 µM in assay [7] of 10%.

Regarding `Cc1c(C)c2c(c(C)c1O)CCC(C)(C(=O)O)O2` (stereo not drawn) [Trolox, 6-hydroxy-2,5,7,8-tetramethylchroman-2-carboxylic acid, reference compound], in assay [6], the “LP Inhibition (%)” value was 88%.
